The values that follow come from US11787785B2 (NOVARTIS AG, priority 2021, dated 2023).

Assay [1] has as its target T1, WIZ protein (HiBit-WIZ fusion protein) (Homo sapiens, UniProt O95785+Q96SW2).
T1 construct: expressed in transfected cells
In words: Quantification of WIZ protein levels in HiBit tag fusion protein assay (WIZ HiBit assay in 293T cells). The assay is classed as cell-based. Further details: remaining activity / Dmax: dose or concentration left out as unconfirmed. Conditions: for Dmax / remaining activity / Dmax at 25 µM / remaining activity at 25 µM: HEK-293T; for Dmax / Dmax at 25 µM: read-out: % degradation of WIZ (100 − Amax); for remaining activity / remaining activity at 25 µM: read-out: WIZ Amax; for DC50: WIZ HiBit assay in 293T cells, 10-point, 5-fold dose response, highest concentration 25 μM, about 18 hours, read-out: WIZ AC50; for Dmax at 25 µM: 100 − Amax; for Dmax at 25 µM / remaining activity at 25 µM: 293T cells; for remaining activity at 25 µM: DMSO-normalized, curve-fitted percentage of WIZ-HiBit remaining at 25 uM. The essentials: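 Luminescence after LgBit complementation quantified remaining HiBit-WIZ in lysates of single-copy stable 293T lines. Cells dosed ~18 h at 37 °C with 10-point, 5-fold dilutions (highest 25 μM); DMSO set to 100%, fitted curve gave % remaining at 25 μM (Amax).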
In general terms: HiBiT is a short tag that completes a luciferase, so light tracks the accessible tagged protein.

A further assay relates to Fetal Hemoglobin (HbF). In words: Small molecule HbF induction assay (mPB CD34+ cells erythroid differentiated, flow cytometry). The assay is classed as cell-based. Conditions: Homo sapiens, 168 h; for Emax: 7 days with compound, baseline DMSO approximately 30-40%, read-out: HbF Amax (highest percentage of cells staining positive for HbF in the fitted dose-response curve); for EC50: erythroid differentiated in presence of compound for 7 days, flow cytometry. On the procedure: Cryopreserved primary human CD34^+ hematopoietic stem and progenitor cells were obtained from AllCells, LLC. The CD34^+ cells were isolated from the peripheral blood of healthy donors after mobilization by administration of granulocyte colony-stimulating factor. Cells were differentiated ex vivo toward the erythroid lineage using a 2-phase culture method. In the first phase, cells were cultured in StemSpan™ Serum-Free Expansion Media (SFEM) ([…] Technologies Inc.) supplemented with rhSCF (50 ng/mL, Peprotech®, Inc.), rhIL-6 (50 ng/mL, Peprotech®, Inc.), rhIL-3 (50 ng/mL, Peprotech®, Inc.), and rhFlt3L (50 ng/mL, Peprotech®, Inc.), and 1× antibiotic-antimycotic (Life Technologies, Thermo Fisher Scientific) for 6 days at 37° C. with 5% CO2. During the second phase, cells were cultured in erythroid differentiation media at 5,000 cells/mL in the presence of compound for 7 days at 37° C. with 5% CO2. Erythroid Differentiation Media is comprised of IMDM (Life Technologies) supplemented with insulin (10 μg/mL, Sigma Aldrich), heparin (2 U/mL Sigma Aldrich), holo-transferrin (330 μg/mL, Sigma Aldrich), human serum AB (5%, Sigma Aldrich), hydrocortisone (1 μM, […] Technologies), rhSCF (100 ng/mL, Peprotech®, Inc.), rhIL-3 (5 ng/mL, Peprotech®, Inc.), rhEPO (3 U/mL, Peprotech®, Inc.), and 1× antibiotic-antimycotic. All compounds were dissolved and diluted into dimethylsulfoxide (DMSO) and were added to culture media for a final concentration of 0.3% DMSO for testing in a 7-point, 1:3 dilution series starting at 30 uM.
Staining and Flow Cytometry
For viability analysis, samples were washed and resuspended in phosphate-buffered saline (PBS) and stained with LIVE/DEAD™ Fixable Violet Dead Cell Stain Kit (Life Technologies, L34963) for 20 minutes. Cells were then washed again with PBS and resuspended in PBS supplemented with 2% fetal bovine serum (FBS), and 2 mM EDTA to prepare for cell surface marker analysis. Cells were labeled with allophycocyanin-conjugated CD235a (1:100, BD Biosciences, 551336) and Brilliant Violet-conjugated CD71 (1:100, BD Biosciences, 563767) antibodies for 20 minutes. For analysis of cytoplasmic Fetal Hemoglobin (HbF), cells were fixed and permeabilized using the Fixation (BioLegend®, 420801) and Permeabilization Wash (BioLegend®, 421002) Buffers according to the manufacturer's protocol. During the permeabilization step, cells were stained with phycoerythrin-conjugated or FITC-conjugated HbF-specific antibody (1:10-1:25, Invitrogen™, MHFH04-4) for 30 minutes. Stained cells were washed with phosphate-buffered saline before analysis on the FACSCanto™ II flow cytometer or LSRFortessa™ (BD Biosciences). Data analysis was performed with FIowJo™ Software (BD Biosciences).
HbF Induction Activity of Compounds (Table 2)
mPB CD34+ cells were expanded for 6 days, then erythroid differentiated in the presence of compound for 7 days. Cells were fixed, stained and analyzed by flow cytometry. […] HbF Amax=the highest percentage of cells staining positive for HbF (% HbF+ cells) in the fitted dose-response curve. The baseline % HbF+ cells for DMSO-treated cells is approximately 30-40%.
(Flow cytometry measures light scatter and fluorescence of single cells or particles in a stream.)

Assay [2] concerns HbF. Conditions: ex vivo, human primary erythroid cells; cited from earlier work.
Assay [3] deals with HbF. Conditions: in vivo; cited from earlier work.

Where two headings read alike, the source gives them in different places.

T1 sequence (O95785 whole entry, the tested form may be a part): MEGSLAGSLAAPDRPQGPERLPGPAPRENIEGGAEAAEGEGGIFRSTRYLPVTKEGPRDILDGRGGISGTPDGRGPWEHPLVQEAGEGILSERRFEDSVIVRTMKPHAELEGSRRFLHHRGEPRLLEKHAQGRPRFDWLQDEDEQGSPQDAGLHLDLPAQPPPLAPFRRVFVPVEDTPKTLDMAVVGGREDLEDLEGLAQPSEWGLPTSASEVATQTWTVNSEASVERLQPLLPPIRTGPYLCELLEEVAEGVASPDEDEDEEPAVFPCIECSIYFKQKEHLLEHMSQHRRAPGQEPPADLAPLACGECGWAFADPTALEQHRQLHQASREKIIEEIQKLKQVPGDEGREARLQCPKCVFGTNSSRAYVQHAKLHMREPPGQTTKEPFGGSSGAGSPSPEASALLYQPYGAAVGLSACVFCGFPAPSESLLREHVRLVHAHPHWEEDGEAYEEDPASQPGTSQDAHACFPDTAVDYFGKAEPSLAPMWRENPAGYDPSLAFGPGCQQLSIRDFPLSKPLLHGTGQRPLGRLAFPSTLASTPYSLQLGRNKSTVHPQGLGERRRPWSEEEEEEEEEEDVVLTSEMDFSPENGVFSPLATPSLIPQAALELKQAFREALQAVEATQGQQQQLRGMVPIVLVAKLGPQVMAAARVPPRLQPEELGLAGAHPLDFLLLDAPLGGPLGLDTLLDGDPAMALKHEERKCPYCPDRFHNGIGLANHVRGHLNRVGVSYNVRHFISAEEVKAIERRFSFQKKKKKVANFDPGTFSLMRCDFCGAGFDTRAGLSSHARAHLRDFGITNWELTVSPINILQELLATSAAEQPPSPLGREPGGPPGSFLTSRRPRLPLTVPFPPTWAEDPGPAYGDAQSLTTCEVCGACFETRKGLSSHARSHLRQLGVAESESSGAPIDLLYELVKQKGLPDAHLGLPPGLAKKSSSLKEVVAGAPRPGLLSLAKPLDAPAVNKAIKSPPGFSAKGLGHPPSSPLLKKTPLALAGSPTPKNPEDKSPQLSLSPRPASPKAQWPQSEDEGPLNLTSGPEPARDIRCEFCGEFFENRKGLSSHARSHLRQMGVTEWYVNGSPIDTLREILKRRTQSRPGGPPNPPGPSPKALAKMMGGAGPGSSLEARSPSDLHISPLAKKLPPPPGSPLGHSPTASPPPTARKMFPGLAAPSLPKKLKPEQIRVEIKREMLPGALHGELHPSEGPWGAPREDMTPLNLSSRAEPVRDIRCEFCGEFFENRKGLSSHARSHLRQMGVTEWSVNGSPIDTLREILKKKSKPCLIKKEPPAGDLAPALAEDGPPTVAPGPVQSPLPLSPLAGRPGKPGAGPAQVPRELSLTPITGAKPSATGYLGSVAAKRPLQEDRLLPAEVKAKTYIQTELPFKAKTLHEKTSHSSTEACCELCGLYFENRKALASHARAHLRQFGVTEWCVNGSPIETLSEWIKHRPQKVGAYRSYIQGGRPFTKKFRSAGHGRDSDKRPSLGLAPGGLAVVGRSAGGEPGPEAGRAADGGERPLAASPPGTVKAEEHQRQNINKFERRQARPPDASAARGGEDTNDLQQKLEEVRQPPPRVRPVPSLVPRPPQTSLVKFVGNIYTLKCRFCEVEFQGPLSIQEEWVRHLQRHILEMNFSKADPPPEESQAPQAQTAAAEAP
T1 sequence (Q96SW2 whole entry, the tested form may be a part): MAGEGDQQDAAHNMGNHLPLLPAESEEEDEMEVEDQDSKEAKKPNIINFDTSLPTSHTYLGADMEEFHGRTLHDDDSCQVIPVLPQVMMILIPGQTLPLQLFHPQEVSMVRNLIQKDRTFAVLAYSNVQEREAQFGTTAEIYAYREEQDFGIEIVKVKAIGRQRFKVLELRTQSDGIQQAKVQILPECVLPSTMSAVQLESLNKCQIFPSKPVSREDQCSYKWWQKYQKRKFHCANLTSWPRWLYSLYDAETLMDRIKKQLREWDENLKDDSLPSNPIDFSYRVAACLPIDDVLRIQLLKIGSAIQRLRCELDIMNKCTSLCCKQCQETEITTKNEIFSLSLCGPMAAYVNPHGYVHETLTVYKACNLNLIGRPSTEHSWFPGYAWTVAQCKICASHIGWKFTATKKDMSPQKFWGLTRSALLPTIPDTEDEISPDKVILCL
T1 sequence (Q16531 whole entry partner, the tested form may be a part): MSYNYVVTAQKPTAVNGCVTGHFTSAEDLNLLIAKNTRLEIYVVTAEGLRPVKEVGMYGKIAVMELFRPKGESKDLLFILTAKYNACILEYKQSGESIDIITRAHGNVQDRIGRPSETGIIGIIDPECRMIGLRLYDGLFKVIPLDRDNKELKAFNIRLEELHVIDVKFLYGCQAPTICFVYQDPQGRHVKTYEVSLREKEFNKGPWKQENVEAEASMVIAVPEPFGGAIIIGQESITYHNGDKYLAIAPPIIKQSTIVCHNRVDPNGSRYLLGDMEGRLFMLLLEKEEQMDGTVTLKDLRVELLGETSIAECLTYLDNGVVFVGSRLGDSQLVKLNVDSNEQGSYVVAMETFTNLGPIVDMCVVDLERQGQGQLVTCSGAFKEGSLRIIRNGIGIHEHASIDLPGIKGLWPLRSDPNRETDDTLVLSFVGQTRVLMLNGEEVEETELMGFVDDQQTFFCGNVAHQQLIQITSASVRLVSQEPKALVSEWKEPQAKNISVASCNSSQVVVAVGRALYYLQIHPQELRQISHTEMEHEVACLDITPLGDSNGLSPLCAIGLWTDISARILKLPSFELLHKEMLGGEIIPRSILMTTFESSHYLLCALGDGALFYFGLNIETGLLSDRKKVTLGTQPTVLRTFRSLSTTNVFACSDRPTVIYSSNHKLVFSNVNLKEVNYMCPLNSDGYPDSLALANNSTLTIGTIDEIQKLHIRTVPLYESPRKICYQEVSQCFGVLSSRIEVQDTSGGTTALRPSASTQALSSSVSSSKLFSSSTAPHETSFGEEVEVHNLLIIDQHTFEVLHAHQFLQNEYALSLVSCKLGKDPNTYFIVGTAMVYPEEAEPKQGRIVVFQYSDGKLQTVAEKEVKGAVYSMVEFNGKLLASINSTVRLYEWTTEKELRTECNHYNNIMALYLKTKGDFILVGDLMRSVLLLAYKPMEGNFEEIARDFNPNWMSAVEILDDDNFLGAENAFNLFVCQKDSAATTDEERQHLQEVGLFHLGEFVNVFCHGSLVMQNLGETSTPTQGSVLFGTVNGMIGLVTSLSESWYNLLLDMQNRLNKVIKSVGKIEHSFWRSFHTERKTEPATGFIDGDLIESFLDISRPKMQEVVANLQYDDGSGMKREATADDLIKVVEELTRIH

For orientation: EC50 means the concentration that produces a half-maximal response. Consider `CCS(=O)(=O)N1CC[C@@H](Cc2ccn3ncc(N4CCC(=O)NC4=O)c3c2)C[C@@H]1C` [Example 283, 1-(5-(((2S,4R)-1-(ethylsulfonyl)-2-methylpiperidin-4-yl)methyl)pyrazolo[1,5-a]pyridin-3-yl)dihydropyrimidine-2,4(1H,3H)-dione], for which, in assay [1], the Dmax came out at 80%, the remaining activity turned out to be 19% and the DC50 is 29 nM. In the assay on Fetal Hemoglobin (HbF), the Emax came to 61% and the EC50 worked out at 127 nM.
`CC(C)CN1CC[C@@H](Cc2ccn3ncc(N4CCC(=O)NC4=O)c3c2)C[C@@H]1C` [Example 145]: in assay [1], the Dmax at 25 µM is 84%, the remaining activity at 25 µM was determined as 16% and the DC50 was 25 nM. Moreover, in the assay on Fetal Hemoglobin (HbF), the Emax came out at 76% and the EC50 was found to be 30 nM.
For `CC(C)CN1CCN(Cc2ccn3ncc(N4CCC(=O)NC4=O)c3c2)C[C@@H]1C` [Example 203, (S)-1-(5-((4-isobutyl-3-methylpiperazin-1-yl)methyl)pyrazolo[1,5-a]pyridin-3-yl)dihydropyrimidine-2,4(1H,3H)-dione], in that order: 84%, 16%, 25 nM, 82% and 45 nM.
For `O=C1CCN(c2cnn3ccc(CC4CCN(Cc5cccnc5)CC4)cc23)C(=O)N1` [Example 17, 1-(5-((1-(pyridin-3-ylmethyl)piperidin-4-yl)methyl)pyrazolo[1,5-a]pyridin-3-yl)dihydropyrimidine-2,4(1H,3H)-dione], in that order: 82%, 18%, 48 nM, 80% and 266 nM.
Take `C[C@H]1C[C@H](Cc2ccn3ncc(N4CCC(=O)NC4=O)c3c2)CCN1C(=O)C1CC1` [Example 287, 1-(5-(((2S,4R)-1-(cyclopropanecarbonyl)-2-methylpiperidin-4-yl)methyl)pyrazolo[1,5-a]pyridin-3-yl)dihydropyrimidine-2,4(1H,3H)-dione]: in assay [1], the Dmax was determined as 81%, the remaining activity came to 19% and the DC50 stood at 15 nM. In addition, in the assay with Fetal Hemoglobin (HbF), the Emax was 63% and the EC50 stood at 60 nM.
Turning to `Nc1cccc2c1CN(C1CCC(=O)NC1=O)C2=O` (stereo not drawn) [lenalidomide], the HbF induction result in the assay on HbF [2] and in the assay with HbF [3] was “induce HbF” in each case.
Take `CO[C@H]1CC[C@H](CN2CCN(Cc3ccn4ncc(N5CCC(=O)NC5=O)c4c3)CC2)CC1` [Example 179, 1-(5-((4-(((1r,4r)-4-methoxycyclohexyl)methyl)piperazin-1-yl)methyl)pyrazolo[1,5-a]pyridin-3-yl)dihydropyrimidine-2,4(1H,3H)-dione]: in assay [1], the Dmax at 25 µM was found to be 82%, the remaining activity at 25 µM is 18% and the DC50 was determined as 49 nM. Besides, in the assay on Fetal Hemoglobin (HbF), the Emax was 79% and the half-maximal effective concentration (EC50) is 74 nM.
Consider `O=C1CCN(c2cnn3ccc(CN4CCN(CC5CCCCC5)CC4)cc23)C(=O)N1` [Example 156, 1-(5-((4-(cyclohexylmethyl)piperazin-1-yl)methyl)pyrazolo[1,5-a]pyridin-3-yl)dihydropyrimidine-2,4(1H,3H)-dione], for which, in assay [1], the Dmax was determined as 86%, the remaining activity is 14% and the DC50 turned out to be 23 nM. In the assay with Fetal Hemoglobin (HbF), the Emax came to 81% and the concentration giving a half-maximal response (EC50) stood at 12 nM.
In the case of `CC(C)CN1CCC(Cc2ccn3ncc(N4CCC(=O)NC4=O)c3c2)CC1` [Example 109, 1-(5-((1-isobutylpiperidin-4-yl)methyl)pyrazolo[1,5-a]pyridin-3-yl)dihydropyrimidine-2,4(1H,3H)-dione], in assay [1], the Dmax at 25 µM came out at 82%, the remaining activity at 25 µM was found to be 18% and the DC50 is 39 nM. For the same compound, in the assay on Fetal Hemoglobin (HbF), the Emax was determined as 77% and the 50% effective concentration (EC50) came out at 129 nM.
For `O=C1CCN(c2cnn3ccc(CN4CCN(CC5CCOCC5)CC4)cc23)C(=O)N1` [Example 160] the same measures were 82%, 18%, 45 nM, 84% and 999 nM.
For `C[C@H]1CN(Cc2ccn3ncc(N4CCC(=O)NC4=O)c3c2)CCN1CC1CCC(F)(F)CC1` [Example 207], in that order: 86%, 14%, 14 nM, 85% and 89 nM.
Consider `Nc1cccc2c1C(=O)N(C1CCC(=O)NC1=O)C2=O` (stereo not drawn) [pomalidomide], for which the HbF induction result in the assay with HbF [2] and with HbF [3] was “induce HbF” throughout.
